Measurements published in patent publication US4148795A, “Dithiocarbamate ester bactericides and fungicides” (American Cyanamid Company, priority 1976, dated 1979).
“And” between values parts separate entries of the source, which are not always exact repeats. Identical values can stand only once. Like-named read-outs stand apart in the source and are kept apart here.

Legend:
Phytophthora infestans = format: in vivo; parameters: scale not given here; details: Tomato Late Blight, five days
Piricularia oryzae = format: in vivo; parameters: scale not given here; details: Rice Blast, five days
Venturia inaequalis = details: in vivo; note: key: 5: clean, no disease; 4: trace of disease; 3: slight disease; 2: moderate disease; 1: severe disease; 0: like controls
Monilinia fructicola = test: Spore germination inhibition; format: cell-based
Source text: (§1) The test procedure involves the preparation of a 100, 10 or 1 ppm. suspension of test compound in water. The solutions are placed in one dram "opticlear" vials and separately inoculated with one drop of a spore suspension prepared from seven-day cultures of Aspergillus niger and 14-day old cultures of Monilinia fructicola and Stemphylium sarcinaeforme,all grown on potato-dextrose agar. The vials containing the separately inoculated solutions of test compounds are then capped and placed on a rotating tumbler for 24 hours to assure contact of the organism with the test compound. After 24 hours, the vials are removed and examined for inhibition of […].

[1] = system: Stemphylium sarcinaeforme; test: Spore germination inhibition; format: cell-based; details: Stemphylium sarciniforme
Source text: as §1

Aspergillus niger = test: Spore germination inhibition; format: cell-based; details: 24 hours
Source text: as §1

[2] = 24 h, read-out: % Inhibition of Spore Germination

| SMILES | disease control index (Phytophthora infestans; 150 ppm) | disease control index (Phytophthora infestans; 300 ppm) | disease control index (Phytophthora infestans; 600 ppm) | disease control index (Phytophthora infestans; 1200 ppm) | disease control index (Piricularia oryzae; at 75 ppm) | disease control index (Piricularia oryzae; at 500 ppm) | disease control index (Phytophthora infestans; at 500 ppm) | disease control index (Venturia inaequalis) | disease control index (Piricularia oryzae; 300 ppm) | disease control index (Piricularia oryzae; 150 ppm) | disease control index (Piricularia oryzae; 600 ppm) | disease control index (Piricularia oryzae; 1200 ppm) | other results |
| --- | --- | --- | --- | --- | --- | --- | --- | --- | --- | --- | --- | --- | --- |
| CN(C)C(=S)SC(C[N+](=O)[O-])c1ccc(C(C[N+](=O)[O-])SC(=S)N(C)C)cc1 (stereo not drawn) [Example 20, α,α'-Bis(nitromethyl)-p-phenylenedimethylene Dimethyldithiocarbamate] | 3 | 3 | 4 | 5 | – | – | – | – | – | – | – | – | – |
| CN(C)C(=S)SC(C[N+](=O)[O-])c1cc([N+](=O)[O-])ccc1Cl (stereo not drawn) [Example 23, 2-Chloro-5-nitro-α-(nitromethyl)benzyl Dimethyldithiocarbamate] | – | – | – | – | 3 | 4 | 5 | 4 | – | – | – | – | disease control index (Phytophthora infestans; at 100 ppm): 5 |
| CN(C)CC1(CSC(=S)N(C)C)SC(=S)NC1=O (centres unmarked) [Example 12, Dimethyldithiocarbamic Acid S-Ester with 5-(Dimethylaminomethy)-5-(mercaptomethyl)rhodanine] | 5 | 5 | – | – | – | – | – | 5 | 5 | – | – | – | – |
| COc1ccc(C(C[N+](=O)[O-])SC(=S)N(C)C)cc1 (stereo not drawn) [Example 29, p-Methoxy-α-(nitromethyl)benzyl Dimethyldithiocarbamate] | 5 | 5 | 5 | 5 | – | – | – | 5 | 5 | 4 | 5 | 5 | inhibition at 1 ppm (Monilinia fructicola; 1 ppm, 24 hours): 0%; inhibition at 10 ppm (Monilinia fructicola; 10 ppm, 24 hours): 100%; inhibition at 100 ppm (Monilinia fructicola; [2]): 100%; inhibition at 100 ppm [1, 2]: 100%; inhibition at 1 ppm ([1]; 1 ppm, 24 hours): 0%; inhibition at 10 ppm ([1]; 10 ppm, 24 hours): 100%; inhibition at 1 ppm (Aspergillus niger; 1 ppm): 0%; inhibition at 10 ppm (Aspergillus niger; 10 ppm): 0%; inhibition at 100 ppm (Aspergillus niger; 100 ppm): 100% |
| COc1cccc(C(C[N+](=O)[O-])SC(=S)N(C)C)c1OC(C)=O (stereo not drawn) [Example 21, 2-Acetoxy-3-methoxy-α-(nitromethyl)benzyl Dimethyldithiocarbamate] | – | – | – | – | 3 | 4 | 5 | 4 | – | – | – | – | – |
| CN(C)C(=S)SC(C[N+](=O)[O-])c1ccco1 (stereo not drawn) [Example 32, α-(Nitromethyl)furfuryl Dimethyldithiocarbamate] | 4 | 4 | 5 | 5 | – | – | – | 5 and 0 | 0 | 0 | 5 | 5 | – |
